Reference: the NIST ThermoML archive (doi:10.1021/acs.jced.8b00298)
± gives the expanded uncertainty stated by the source.

Details: Liquid
[1] = Visual observation in an unstirred cell

Critical pressure (Capillary flow) [kPa]	Critical temperature (Capillary flow) [K]	Critical molar volume (Visual) [m3/mol]	Critical pressure (Visual) [kPa]	Critical temperature [1] [K]	SMILES
3080 ± 100	654.9 ± 3				CC(=O)OCCOC(C)=O [ethylene diacetate]
3750 ± 100	557.9 ± 1.6				C=C(C)C(=O)OC [methyl methacrylate]
		0.00031 ± 2e-05	3830 ± 40	535.32 ± 0.24	COCCOC [1,2-dimethoxyethane]
2760 ± 400	779 ± 20				COC(=O)c1ccc(C(=O)OC)cc1 [dimethyl 1,4-benzenedicarboxylate]
4210 ± 140	519 ± 3				CC(C)C=O [2-methylpropanal]
		0.00041 ± 2e-05	3350 ± 30	607.29 ± 0.24	C[C@@H]1CCCC[C@@H]1C [cis-1,2-dimethylcyclohexane]
2310 ± 60	681.2 ± 2.4				COCCOCCOCCOC [2,5,8,11-tetraoxadodecane]
3170 ± 120	572 ± 3				C=C(C)C(=O)OCC [ethyl 2-methylpropenoate]
		0.0003 ± 2e-05	4000 ± 40	548.62 ± 0.24	CN1CCCC1 [N-methylpyrrolidine]
5090 ± 200	707.4 ± 2				CNC(C)=O [N-methylacetamide]
		0.0005 ± 2e-05	2770 ± 30	646.9 ± 0.2	CC(C)(C)C1CCCCC1 [1,1-dimethylethylcyclohexane]
1980 ± 120	726.6 ± 4				COCCOCCOCCOCCOC [2,5,8,11,14-pentaoxapentadecane]
2830 ± 120	619.7 ± 4				COCCOCCOC [2,5,8-trioxanonane]
2920 ± 60	770 ± 2				c1ccc(Cc2ccccc2)cc1 [diphenylmethane]
4000 ± 240	800.3 ± 4				OCC1CCC(CO)CC1 (configuration not stated) [1,4-bis(hydroxymethyl)cyclohexane]
3660 ± 160	581.5 ± 3.6				CN1CCCCC1 [N-methylpiperidine]
4550 ± 280	488.9 ± 3.2				COCOC [dimethoxymethane]
4210 ± 90	584 ± 2				COCC(C)=O [1-methoxy-2-propanone]
3080 ± 120	578.2 ± 3				CCOC(=O)OCC [diethyl carbonate]

Critical pressure (Capillary flow) [kPa]	Critical temperature (Capillary flow) [K]	Critical molar volume (Visual) [m3/mol]	Critical pressure (Visual) [kPa]	Critical temperature [1] [K]	SMILES
4200 ± 110	598.9 ± 4				CCOCCO [2-ethoxyethan-1-ol]
4210 ± 140	587.4 ± 3				Cn1cccc1 [N-methylpyrrole]
		0.00056 ± 2e-05	2510 ± 30	649.3 ± 0.2	CCCCC1CCCCC1 [butylcyclohexane]
4620 ± 140	607.3 ± 3				Cc1ccsc1 [3-methylthiophene]
1763 ± 110	663 ± 3				CCCCCCOCCCCCC [dihexyl ether]
3110 ± 140	708.2 ± 3.2				CC(C)C(O)C(C)(C)CO (configuration not stated) [2,2,4-trimethyl-1,3-pentanediol]
		0.00048 ± 2e-05	3030 ± 30	653 ± 0.2	CCC(C)c1ccccc1 (configuration not stated) [(1-methylpropyl)benzene]
		0.00048 ± 2e-05	2940 ± 30	635.3 ± 0.2	CC(C)C1CCCCC1 [(1-methylethyl)cyclohexane]
4310 ± 140	596.6 ± 3				COC(C)CO (configuration not stated) [2-methoxy-1-propanol]
3920 ± 90	715.8 ± 4				Cc1ccc(C=O)cc1 [4-methylbenzaldehyde]
657 ± 67	805 ± 20				CC(C)CCCC(C)CCCC(C)CCCCC(C)CCCC(C)CCCC(C)C (configuration not stated) [2,6,10,15,19,23-hexamethyltetracosane]
6080 ± 260	715.6 ± 4				CNC=O [N-methylformamide]
4260 ± 120	660.2 ± 2.6				CC(=O)N(C)C [N,N-dimethylethanamide]
		0.00042 ± 2e-05	3060 ± 30	585.84 ± 0.24	C[C@H]1CC[C@H](C)CC1 [trans-1,4-dimethylcyclohexane]
2730 ± 120	550.7 ± 4				C=C(C)CC(C)(C)C [2,4,4-trimethyl-1-pentene]
5280 ± 800	786 ± 10				O=C1OCCO1 [ethylene carbonate]
4450 ± 130	556.3 ± 3				COC(=O)OC [dimethyl carbonate]
		0.00044 ± 2e-05	3080 ± 30	596.3 ± 0.3	C[C@@H]1CCCC[C@H]1C (relative stereo) [trans-1,2-dimethylcyclohexane]

The next lines start with the molecule.

SMILES	Critical pressure (Capillary flow) [kPa]	Critical temperature (Capillary flow) [K]	Critical molar volume (Visual) [m3/mol]	Critical pressure (Visual) [kPa]	Critical temperature [1] [K]
CC(C)C#N [2-methylpropanenitrile]	3672 ± 150	560.8 ± 2			
CCC(=O)OC(C)COC (configuration not stated) [1-methoxypropan-2-yl propionate]	2600 ± 80	611.7 ± 2.4			
C=CC(=O)OC [methyl propenoate]	3990 ± 140	532.7 ± 2.6			
S=C=S [carbon disulfide]			0.000176 ± 9e-06	7330 ± 60	552.5 ± 0.2
C=CC(=O)OCC(CC)CCCC (configuration not stated) [2-ethylhexyl 2-propenoate]	2080 ± 140	672.5 ± 6			
OCCN1CCNCC1 [N-(2-hydroxyethyl)piperazine]	3980 ± 480	760 ± 12			
CCN(CC)CCO [(diethylamino)ethanol]	3247 ± 130	625.9 ± 4			
COC(C)OC [3-methyl-2,4-dioxapentane]	4300 ± 260	511.6 ± 5.6			
C1CCSC1 [tetrahydrothiophene]	5430 ± 300	634.6 ± 6			
Cc1cccs1 [2-methylthiophene]	4620 ± 140	602 ± 2			
C[C@@H]1CCC[C@H](C)C1 [cis-1,3-dimethylcyclohexane]			0.00043 ± 2e-05	3040 ± 30	586.1 ± 0.2
CCCCCCCCOCCCCCCCC [dioctyl ether]	1446 ± 85	727 ± 4			
C1CCNCC1 [piperidine]	4560 ± 140	594.4 ± 3			
CCCCc1ccccc1 [butylbenzene]			0.0005 ± 2e-05	2890 ± 30	660.3 ± 0.2
C=CC(=O)OCC [ethyl propenoate]	3710 ± 100	555.2 ± 2			
Sc1ccccc1 [benzenethiol]	4650 ± 180	689.2 ± 4			
SC1CCCCC1 [cyclohexanethiol]	3970 ± 160	669.6 ± 4			
C=C(C)C(=O)OCCCC [butyl 2-methyl-2-propenoate]	2520 ± 120	615.8 ± 4			
c1cc[nH]c1 [pyrrole]	6300 ± 170	633.3 ± 3			
CCC1CCCCC1 [ethylcyclohexane]			0.00043 ± 2e-05	3110 ± 30	605.9 ± 0.2
CC(C)(C)c1ccccc1 [(1,1-dimethylethyl)benzene]			0.00048 ± 2e-05	2900 ± 30	646.9 ± 0.2
OCCOc1ccccc1 [2-phenoxyethanol]	3860 ± 120	749.4 ± 2			
C=C(C)OC(C)=O [1-methylvinyl ethanoate]	3630	549.8 ± 2			
COCCC#N [3-methoxypropanenitrile]	4040 ± 120	650.9 ± 2.4			
COC(=O)CC(C)=O [methyl 3-oxobutanoate]	3830 ± 140	652.8 ± 4			
O=C1CCCN1 [2-pyrrolidinone]	5590 ± 220	789.1 ± 3.6			
CN(C)C=O [dimethylformamide]	4720 ± 140	650.6 ± 3			
